Measured values: patent US10336761B2, “TGFβ receptor antagonist” (BRISTOL-MYERS SQUIBB COMPANY, priority 2015, dated 2019)

What follows are compounds tested against HIS-TGFβR1 T204D (Homo sapiens (Human), UniProt P36897, T204D) (assay: HTRF probe-displacement assay, HIS-TGFβR1 T204D). Settings: 1 hour at room temperature.
Assay type: binding

Sequence of HIS-TGFβR1 T204D (P36897 34-503 T204D): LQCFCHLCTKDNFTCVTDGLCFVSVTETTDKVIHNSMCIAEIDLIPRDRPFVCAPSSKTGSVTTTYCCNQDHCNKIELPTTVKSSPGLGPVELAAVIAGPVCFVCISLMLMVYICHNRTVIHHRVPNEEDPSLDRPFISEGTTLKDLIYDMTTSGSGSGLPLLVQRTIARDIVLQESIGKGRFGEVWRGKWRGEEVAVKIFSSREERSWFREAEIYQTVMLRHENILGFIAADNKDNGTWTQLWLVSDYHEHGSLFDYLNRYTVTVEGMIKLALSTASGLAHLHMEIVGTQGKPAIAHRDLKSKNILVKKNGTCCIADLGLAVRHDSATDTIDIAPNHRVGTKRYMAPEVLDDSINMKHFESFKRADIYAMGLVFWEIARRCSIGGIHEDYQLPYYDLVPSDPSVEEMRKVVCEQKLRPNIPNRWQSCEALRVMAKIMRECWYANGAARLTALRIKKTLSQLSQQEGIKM

Row | Structure (SMILES) | IC50
1 | Cc1cccc(-c2nc(Nc3ccncc3F)c3c(CN4CCN(CCO)CC4)ccn3n2)n1 [Example 259, 2-[4-({4-[(3-fluoropyridin-4-yl)amino]-2-(6-methylpyridin-2-yl)pyrrolo[2,1-f][1,2,4]triazin-5-yl}methyl)piperazin-1-yl]ethan-1-ol] | 0.93 nM
2 | COc1cccc(-c2nc(Nc3ccncc3F)c3c(C(C)(C)O)ccn3n2)n1 [Example 48, 2-{4-[(3-fluoropyridin-4-yl)amino]-2-(6-methoxypyridin-2-yl)pyrrolo[2,1-f][1,2,4]triazin-5-yl}propan-2-ol] | 32 nM
3 | Cn1nccc1-c1nc(Nc2ccncc2F)c2cccn2n1 [Example 10, 3-fluoro-N-[2-(1-methyl-1H-pyrazol-5-yl)pyrrolo[2,1-f][1,2,4]triazin-4-yl]pyridin-4-amine] | 610 nM
4 | Cc1cccc(-c2nc(Nc3ccncc3C(=O)NC3CCOCC3)c3cccn3n2)n1 [Example 164, 4-{[2-(6-methylpyridin-2-yl)pyrrolo[2,1-f][1,2,4]triazin-4-yl]amino}-N-(oxan-4-yl)pyridine-3-carboxamide] | 75 nM
5 | O=C(NCCCN1CCCC1)c1cnccc1Nc1nc(-c2ccccn2)nn2cccc12 [Example 150] | 16 nM
6 | COc1cccc(-c2nc(Nc3ccncc3NC(=O)CN3CCOCC3)c3cccn3n2)n1 [Example 212, N-(4-{[2-(6-methoxypyridin-2-yl)pyrrolo[2,1-f][1,2,4]triazin-4-yl]amino}pyridin-3-yl)-2-(morpholin-4-yl)acetamide] | 3000 nM
7 | Fc1cccc(-c2nc(Nc3ccncc3Cl)c3cccn3n2)n1 [Example 70, 3-chloro-N-[2-(6-fluoropyridin-2-yl)pyrrolo[2,1-f][1,2,4]triazin-4-yl]pyridin-4-amine] | 0.39 nM
8 | O=C(CN1CC[C@H](O)C1)Nc1cc(Nc2nc(-c3cccc(C(F)(F)F)n3)nn3cccc23)ccn1 [Example 325, 2-[(3S)-3-hydroxypyrrolidin-1-yl]-N-[4-({2-[6-(trifluoromethyl)pyridin-2-yl]pyrrolo[2,1-f][1,2,4]triazin-4-yl}amino)pyridin-2-yl]acetamide] | 10 nM
9 | Cn1nccc1-c1nc(Nc2ccncc2Cl)c2cccn2n1 [Example 81, 3-chloro-N-[2-(1-methyl-1H-pyrazol-5-yl)pyrrolo[2,1-f][1,2,4]triazin-4-yl]pyridin-4-amine] | 360 nM
10 | O=C(NCc1nc[nH]n1)c1cnccc1Nc1nc(-c2cccc(C(F)F)n2)nn2cccc12 [Example 191, 4-({2-[6-(difluoromethyl)pyridin-2-yl]pyrrolo[2,1-f][1,2,4]triazin-4-yl}amino)-N-(1H-1,2,4-triazol-3-ylmethyl)pyridine-3-carboxamide] | 64 nM
11 | O=C(CN1CCNCC1)Nc1cc(Nc2nc(-c3cccc(C(F)(F)F)n3)nn3cccc23)ccn1 [Example 322, 2-(piperazin-1-yl)-N-[4-({2-[6-(trifluoromethyl)pyridin-2-yl]pyrrolo[2,1-f][1,2,4]triazin-4-yl}amino)pyridin-2-yl]acetamide] | 1.3 nM
12 | COc1cccc(-c2nc(Nc3ccncc3NC(C)=O)c3cccn3n2)n1 [Example 47, N-(4-{[2-(6-methoxypyridin-2-yl)pyrrolo[2,1-f][1,2,4]triazin-4-yl]amino}pyridin-3-yl)acetamide] | 180 nM
13 | N#Cc1cc(Nc2nc(-c3cccc(C(F)(F)F)n3)nn3cccc23)ccn1 [Example 292, 4-({2-[6-(trifluoromethyl)pyridin-2-yl]pyrrolo[2,1-f][1,2,4]triazin-4-yl}amino)pyridine-2-carbonitrile] | 360 nM
14 | NC(=O)c1cc(Nc2nc(-c3cccc(C(F)(F)F)n3)nn3cccc23)ccn1 [Example 315, 4-({2-[6-(trifluoromethyl)pyridin-2-yl]pyrrolo[2,1-f][1,2,4]triazin-4-yl}amino)pyridine-2-carboxamide] | 890 nM
15 | O=C(CN1CCCC1)Nc1cc(Nc2nc(-c3cccc(C(F)F)n3)nn3cccc23)ccn1 [Example 33, N-[4-({2-[6-(difluoromethyl)pyridin-2-yl]pyrrolo[2,1-f][1,2,4]triazin-4-yl}amino)pyridin-2-yl]-2-(pyrrolidin-1-yl)acetamide] | 0.9 nM
16 | COc1cccc(-c2nc(Nc3ccncc3F)c3cc(CNC[C@@H](F)C(C)(C)O)cn3n2)n1 [Example 208, (3R)-3-fluoro-4-[({4-[(3-fluoropyridin-4-yl)amino]-2-(6-methoxypyridin-2-yl)pyrrolo[2,1-f][1,2,4]triazin-6-yl}methyl)amino]-2-methylbutan-2-ol] | 880 nM
17 | CC(=O)Nc1cc(Nc2nc(-c3ccc(F)c(C(F)F)n3)nn3cccc23)ccn1 [Example 11, N-[4-({2-[6-(difluoromethyl)-5-fluoropyridin-2-yl]pyrrolo[2,1-f][1,2,4]triazin-4-yl}amino)pyridin-2-yl]acetamide] | 6.1 nM
18 | Fc1cnccc1Nc1nc(-c2cccc(C(F)(F)F)n2)nn2cccc12 [Example 84, 3-fluoro-N-{2-[6-(trifluoromethyl)pyridin-2-yl]pyrrolo[2,1-f][1,2,4]triazin-4-yl}pyridin-4-amine] | 3.7 nM

Row | Structure (SMILES) | IC50
19 | CC(=O)Nc1cc(Nc2nc(-c3ccc(F)c(C)n3)nn3cccc23)c(F)cn1 [Example 333, N-(5-fluoro-4-{[2-(5-fluoro-6-methylpyridin-2-yl)pyrrolo[2,1-f][1,2,4]triazin-4-yl]amino}pyridin-2-yl)acetamide] | 3.6 nM
20 | COc1cccc(-c2nc(Nc3ccncc3F)c3c(C(O)CNCCN4CCCCC4)ccn3n2)n1 (stereo not drawn) [Example 130, 1-{4-[(3-fluoropyridin-4-yl)amino]-2-(6-methoxypyridin-2-yl)pyrrolo[2,1-f][1,2,4]triazin-5-yl}-2-{[2-(piperidin-1-yl)ethyl]amino}ethan-1-ol] | 540 nM
21 | O=C(CCC(F)(F)F)Nc1cc(Nc2nc(-c3cccc(C(F)(F)F)n3)nn3cccc23)ccn1 [Example 337, 4,4,4-trifluoro-N-[4-({2-[6-(trifluoromethyl)pyridin-2-yl]pyrrolo[2,1-f][1,2,4]triazin-4-yl}amino)pyridin-2-yl]butanamide] | 3.3 nM
22 | O=C(CN1CCCCC1)Nc1cc(Nc2nc(-c3cccc(C(F)(F)F)n3)nn3cccc23)ccn1 [Example 329, 2-(piperidin-1-yl)-N-[4-({2-[6-(trifluoromethyl)pyridin-2-yl]pyrrolo[2,1-f][1,2,4]triazin-4-yl}amino)pyridin-2-yl]acetamide] | 1.7 nM
23 | COc1cccc(-c2nc(Nc3ccnc(F)c3)c3cccn3n2)n1 [Example 94, 2-fluoro-N-[2-(6-methoxypyridin-2-yl)pyrrolo[2,1-f][1,2,4]triazin-4-yl]pyridin-4-amine] | 630 nM
24 | COc1cccc(-c2nc(Nc3ccncc3F)c3c(OCCN4CCCC4)ccn3n2)n1 [Example 45, 3-fluoro-N-[2-(6-methoxypyridin-2-yl)-5-[2-(pyrrolidin-1-yl)ethoxy]pyrrolo[2,1-f][1,2,4]triazin-4-yl]pyridin-4-amine] | 4900 nM
25 | Cc1cccc(-c2nc(Nc3ccncc3)c3cc(C(=O)N(C)C)cn3n2)n1 [Example 218, N,N-dimethyl-2-(6-methylpyridin-2-yl)-4-[(pyridin-4-yl)amino]pyrrolo[2,1-f][1,2,4]triazine-6-carboxamide] | 130 nM
26 | Fc1cnccc1Nc1nc(-c2ccc[nH]2)nn2cccc12 [Example 89, 3-fluoro-N-[2-(1H-pyrrol-2-yl)pyrrolo[2,1-f][1,2,4]triazin-4-yl]pyridin-4-amine] | 190 nM
27 | Oc1cccc(N2CCN(Cc3ccn4nc(-c5ccccn5)nc(Nc5ccncc5F)c34)CC2)c1 [Example 275, 3-[4-({4-[(3-fluoropyridin-4-yl)amino]-2-(pyridin-2-yl)pyrrolo[2,1-f][1,2,4]triazin-5-yl}methyl)piperazin-1-yl]phenol] | 0.47 nM
28 | CC(=O)Nc1nccc(Nc2nc(-c3cccc(C(F)F)n3)nn3cccc23)c1F [Example 229, N-[4-({2-[6-(difluoromethyl)pyridin-2-yl]pyrrolo[2,1-f][1,2,4]triazin-4-yl}amino)-3-fluoropyridin-2-yl]acetamide] | 5.1 nM
29 | COc1cccc(-c2nc(Nc3ccncc3)c3c(Cl)ccn3n2)n1 [Example 91, N-[5-chloro-2-(6-methoxypyridin-2-yl)pyrrolo[2,1-f][1,2,4]triazin-4-yl]pyridin-4-amine] | 49 nM
30 | OC12C[C@H]3C[C@@H](C1)CC(NCc1ccn4nc(-c5ccccn5)nc(Nc5ccncc5F)c14)(C3)C2 [Example 237, (5R,7S)-3-[({4-[(3-fluoropyridin-4-yl)amino]-2-(pyridin-2-yl)pyrrolo[2,1-f][1,2,4]triazin-5-yl}methyl)amino]adamantan-1-ol] | 1.2 nM
31 | O[C@H]1CC[C@H](NCc2ccn3nc(-c4ccccn4)nc(Nc4ccncc4F)c23)CC1 [Example 288, (1R,4R)-4-[({4-[(3-fluoropyridin-4-yl)amino]-2-(pyridin-2-yl)pyrrolo[2,1-f][1,2,4]triazin-5-yl}methyl)amino]cyclohexan-1-ol] | 3.2 nM
32 | COc1cccc(-c2nc(Nc3ccnc(Cl)c3)c3cccn3n2)n1 [Example 93, 2-chloro-N-[2-(6-methoxypyridin-2-yl)pyrrolo[2,1-f][1,2,4]triazin-4-yl]pyridin-4-amine] | 6600 nM
33 | COc1cccc(-c2nc(Nc3ccncc3F)c3cc(N)cn3n2)n1 [Example 103, 4-N-(3-fluoropyridin-4-yl)-2-(6-methoxypyridin-2-yl)pyrrolo[2,1-f][1,2,4]triazine-4,6-diamine] | 140 nM
34 | NC(=O)c1cnccc1Nc1nc(-c2cccc(C(F)F)n2)nn2cccc12 [Example 228, 4-({2-[6-(difluoromethyl)pyridin-2-yl]pyrrolo[2,1-f][1,2,4]triazin-4-yl}amino)pyridine-3-carboxamide] | 1.6 nM
35 | COc1cccc(-c2nc(Nc3ccncc3F)c3c(CN4CCN(C)CC4)ccn3n2)n1 [Example 121, 3-fluoro-N-[2-(6-methoxypyridin-2-yl)-5-[(4-methylpiperazin-1-yl)methyl]pyrrolo[2,1-f][1,2,4]triazin-4-yl]pyridin-4-amine] | 22 nM
36 | CC(=O)Nc1cc(Nc2nc(-c3ccccn3)nn3ccc(CN4CCC(F)(F)CC4)c23)ccn1 [Example 24, N-[4-({5-[(4,4-difluoropiperidin-1-yl)methyl]-2-(pyridin-2-yl)pyrrolo[2,1-f][1,2,4]triazin-4-yl}amino)pyridin-2-yl]acetamide] | 0.4 nM
